# Experimental data published in PMC10714400, “Antimicrobial Peptide–Peptoid Hybrids with and without Membrane Disruption” (ACS Infectious Diseases, 2023).
# Like-named read-outs stand apart in the source and are kept apart here.
# Legend:
# [1] = system: A. baumannii ATCC19606; details: Table S2
# Procedure: (§1) Antimicrobial activity was assayed for all the peptide–peptoids against P. aeruginosa PAO1, K. pneumoniae NCTC418, E. coli W3110, A. baumannii ATCC 19606, methicillin-resistant S. aureus COL (MRSA), and for selected peptides on P. aeruginosa PA14 and the polymyxin-B-resistant derivatives PA14 4.13, PA14 4.18, PA14 2P4, as well as the clinical isolates ZEM-1A and ZEM9A, K. pneumoniae OXA-48, S. aureus Newman, Enterobacter cloacae, Stenotrophomonas maltophilia, Burkholderia cenocepacia, and Staphylococus epidermidis. To determine the Minimal Inhibitory Concentration (MIC), the Broth Microdilution method was used.[72] A colony of bacteria was picked and grown in LB medium overnight at 37 °C.
# (§2) To each well was finally added 4 μL of the diluted bacterial suspension (see above), corresponding to approximately 5 × 10^5 CFU. For each test, two columns of the plate were kept for sterility control (medium only), growth control (medium with bacterial inoculum, no compound). The positive control, Polymyxin B (starting with a concentration of 16 μg/mL) in MH medium with bacterial inocula, was introduced in the two lines of the plate. The plates were incubated at 37 °C for ca. 18 h under static conditions. Next, 15 μL of 3-(4,5-dimethylthiazol-2-yl)-2,5-diphenyltetrazolium bromide (MTT)[73] (1 mg/mL in sterilized MilliQ deionized water) were added to each well, and the plates were incubated for 20–30 min at room temperature. The minimal inhibitory concentration (MIC) was defined as the lowest concentration of the compound that inhibits the visible growth of the tested bacteria (yellow) with the unaided eye.
# [2] = system: E. cloacae
# Procedure: as §1, §2
# [3] = system: E. coli W3110
# Procedure: as §1, §2
# [4] = system: K. pneumoniae NCTC418; details: Table S2
# Procedure: as §1, §2
# [5] = system: K. pneumoniae OXA-48
# Procedure: as §1, §2
# [6] = system: P. aeruginosa PAO1
# Procedure: as §1, §2
# [7] = system: PA14 2P4 (pmrB); details: Table S3; […] MH at pH 8.5
# Procedure: as §1, §2
# [8] = system: PA14 4.13 (phoQ)
# Procedure: as §1, §2
# [9] = system: PA14 4.18 (pmrB)
# Procedure: as §1, §2
# [10] = system: S. aureus COL (MRSA)
# Procedure: as §1, §2
# [11] = system: ZEM-1A (clinical MDR P. aeruginosa isolate)
# Procedure: as §1, §2
# [12] = system: ZEM9A (clinical MDR P. aeruginosa isolate)
# Procedure: as §1, §2
# [13] = system: human red blood cells (hRBC); experiment: Minimum hemolytic concentration (MHC); format: cell-based; details: hRBC, 10 mM phosphate buffer, 150 mM NaCl, pH 7.4, 25 °C, 4 h
# From the text: We also measured minimal hemolysis concentrations (MHC) on human red blood cells by serial 2-fold dilution as an indication of toxicity against eukaryotic cells (Table 1).
# [14] = system: B. cenocepacia; details: MH pH 7.4, 16–20 h at 37 °C
# Procedure: as §1
# as §2, with “The plates were incubated at 37 °C for ca. 18 h under static conditions.” left out
# [15] = system: P. aeruginosa PA14
# Procedure: as §1
# as §2, with “The plates were incubated at 37 °C for ca. 18 h under static conditions.” left out
# [16] = system: S. aureus Newman
# Procedure: as §1
# as §2, with “The plates were incubated at 37 °C for ca. 18 h under static conditions.” left out
# [17] = system: S. epidermis
# Procedure: as §1
# as §2, with “The plates were incubated at 37 °C for ca. 18 h under static conditions.” left out
# [18] = system: S. maltophilia
# Procedure: as §1
# as §2, with “The plates were incubated at 37 °C for ca. 18 h under static conditions.” left out
# [19] = system: P. aeruginosa PAO1; experiment: Bacterial count after treatment, before TEM sample preparation; format: cell-based, Pseudomonas aeruginosa; details: P. aeruginosa PAO1, […] MH pH 8.5, 10x MIC
# Procedure: (§3) Just before the samples were further prepared for the microscopy, surviving bacteria were quantified by plating 10-fold dilutions of samples in sterilized normal saline (NaCl 0.9%) on LB agar plates. […] The assay was performed in triplicate. Each bacteria sample was centrifuged at 12,000 rpm for 3 min, and the supernatant was discarded. The samples were then further processed and imaged using our previously described protocol.[64]
# 8. Transmission electron microscopy (TEM)
# Table S4: Bacterial counts, 2 hours after treatment, before TEM sample preparation. Data represents triplicates.
# Bacteria count after treatment at 10x MIC and 2 h of incubation at 37 °C
# Control (non-treated cells) 1 × 10^8 CFU (100)
# [20] = system: P. aeruginosa PAO1; experiment: Transmission electron microscopy (TEM); format: cell-based, Pseudomonas aeruginosa; details: P. aeruginosa PAO1, 10 × MIC, […] MH at pH 8.5, 2 h at 37 °C
# Procedure: Scale bars are 500 nm and 1 μm. Red arrows: membrane perturbations. Blue arrows: intracellular aggregation. Yellow arrows: empty area within the cell.
# as §3
substance,measurement,setting,value
"Polymyxin B [PMB, reference compound]",MIC A. baumannii ATCC19606 […] 7.4,"[1]; […] MH, pH 7.4",0.5 µg/mL
same,MIC A. baumannii ATCC19606 […] 8.5,"[1]; […] MH, pH 8.5",0.25 µg/mL
same,MIC A. baumannii ATCC19606 Full MH 7.4,"[1]; full MH, pH 7.4",0.25 µg/mL
same,MIC A. baumannii ATCC19606 Full MH 8.5,"[1]; full MH, pH 8.5",0.25 µg/mL
same,MIC E. cloacae,"[2]; MH pH 7.4, 16–20 h at 37 °C",0.5 to 1 µg/mL
same,MIC E. cloacae,"[2]; Table S3, […] MH at pH 8.5",1 to 2 µg/mL
same,Antibacterial activity as a function of NaCl concentration,"[3]; E. coli W3110, […] MH at pH 8.5, up to 300 mM NaCl",less affected
same,MIC E. coli W3110 […] 7.4,"[3]; Table S2, […] MH, pH 7.4",0.5 µg/mL
same,MIC E. coli W3110 […] 8.5,"[3]; Table S2, […] MH, pH 8.5",0.25 µg/mL
same,MIC E. coli W3110 Full MH 7.4,"[3]; Table S2, full MH, pH 7.4",0.25 µg/mL
same,MIC E. coli W3110 Full MH 8.5,"[3]; Table S2, full MH, pH 8.5",< 0.1 µg/mL
same,MIC K. pneumoniae NCTC418 […] 7.4,"[4]; […] MH, pH 7.4",0.5 µg/mL
same,MIC K. pneumoniae NCTC418 […] 8.5,"[4]; […] MH, pH 8.5",0.5 µg/mL
same,MIC K. pneumoniae NCTC418 Full MH 7.4,"[4]; full MH, pH 7.4",0.25 µg/mL
same,MIC K. pneumoniae NCTC418 Full MH 8.5,"[4]; full MH, pH 8.5",0.25 µg/mL
same,MIC K. pneumoniae OXA-48,"[5]; MH pH 7.4, 16–20 h at 37 °C",1 to 2 µg/mL
same,MIC K. pneumoniae OXA-48,"[5]; Table S3, […] MH at pH 8.5",1 to 2 µg/mL
same,Antibacterial activity as a function of NaCl concentration,"[6]; P. aeruginosa PAO1, […] MH at pH 8.5, up to 300 mM NaCl",less affected
same,MIC P. aeruginosa PAO1 […] 7.4,"[6]; Table S2, […] MH, pH 7.4",0.5 µg/mL
same,MIC P. aeruginosa PAO1 […] 8.5,"[6]; Table S2, […] MH, pH 8.5",0.5 µg/mL
same,MIC P. aeruginosa PAO1 Full MH 7.4,"[6]; Table S2, full MH, pH 7.4",0.5 µg/mL
same,MIC P. aeruginosa PAO1 Full MH 8.5,"[6]; Table S2, full MH, pH 8.5",0.25 µg/mL
same,MIC P. aeruginosa PAO1 […],"[6]; diluted MH ([…] MH, pH 8.5) per Table 1 footnote b, 16–20 h at 37 °C",0.5 µg/mL
same,MIC P. aeruginosa PA14 2P4,[7],1 µg/mL
same,MIC PA14 4.13 (phoQ),"[8]; MH pH 7.4, 16–20 h at 37 °C",0.25 µg/mL
same,MIC P. aeruginosa PA14 4.13,"[8]; Table S3, […] MH at pH 8.5",0.5 µg/mL
same,MIC PA14 4.18 (pmrB),"[9]; MH pH 7.4, 16–20 h at 37 °C",1 µg/mL
same,MIC P. aeruginosa PA14 4.18,"[9]; Table S3, […] MH at pH 8.5",0.25 µg/mL
same,MIC S. aureus COL (MRSA) […] 7.4,"[10]; Table S2, […] MH, pH 7.4",8 µg/mL
same,MIC S. aureus COL (MRSA) […] 8.5,"[10]; Table S2, […] MH, pH 8.5",1 µg/mL
same,MIC S. aureus COL (MRSA) Full MH 7.4,"[10]; Table S2, full MH, pH 7.4",> 64 µg/mL
same,MIC S. aureus COL (MRSA) Full MH 8.5,"[10]; Table S2, full MH, pH 8.5",2 µg/mL
same,MIC S. aureus COL (MRSA) Full,"[10]; full MH, pH 7.4, 16–20 h at 37 °C",>32 µg/mL
same,MIC ZEM-1A,"[11]; MH pH 7.4, 16–20 h at 37 °C",<0.13 µg/mL
same,MIC P. aeruginosa ZEM-1A,"[11]; Table S3, […] MH at pH 8.5",1 µg/mL
same,MIC ZEM9A,"[12]; MH pH 7.4, 16–20 h at 37 °C",2 µg/mL
same,MIC P. aeruginosa ZEM9A,"[12]; Table S3, […] MH at pH 8.5",1 to 2 µg/mL
same,MHC,[13]; Table S2,> 2000 µg/mL
same,MHC,[13],>2000 µg/mL
same,MIC B. cenocepacia,[14],>16 µg/mL
same,MIC P. aeruginosa PA14,"[15]; MH pH 7.4, 16–20 h at 37 °C",<0.13 µg/mL
same,MIC P. aeruginosa PA14,"[15]; Table S3, […] MH at pH 8.5, 16-20 hours at 37 °C",0.25 µg/mL
same,MIC S. aureus Newman,"[16]; MH pH 7.4, 16–20 h at 37 °C",>16 µg/mL
same,MIC S. aureus Newman,"[16]; Table S3, […] MH at pH 8.5",2 µg/mL
same,MIC S. epidermis,"[17]; MH pH 7.4, 16–20 h at 37 °C",>16 µg/mL
same,MIC S. epidermis,"[17]; Table S3, […] MH at pH 8.5",2 µg/mL
same,MIC S. maltophilia,"[18]; MH pH 7.4, 16–20 h at 37 °C",0.5 µg/mL
same,MIC S. maltophilia,"[18]; Table S3, […] MH at pH 8.5",2 µg/mL
same,Bacteria count after treatment at 10x MIC and 2 h of incubation at 37 °C (% of control),[19],1 % of control
same,"TEM micrographs, changes in treated bacteria",[20],blebbing and a disrupted outer membrane
